Values quoted from earlier work as cited in US5496703A, “Indirect immunoassay for dioxinlike compounds” (priority 1993, dated 1996).
Read-outs that look alike come from different tables or passages of the source.

Legend:
AHH [1] = settings: nonresponsive DBA/2 inbred mouse strain; cited from earlier work
Ah receptor = settings: cited from earlier work
AHH [2] = settings: responsive C57BL/6J inbred mouse strain; cited from earlier work

SMILES	AHH induction (AHH [1])	binding affinity to Ah receptor (Ah receptor)	AHH induction (AHH [2])
Cc1ccc2cc3c(ccc4ccccc43)c3c2c1CC3 [3-methylcholanthrene]	not in the nonresponsive DBA/2 inbred mouse strain	high affinity	capable of inducing AHH activity
c1ccc2c(c1)cc1ccc3cccc4ccc2c1c34 [benzo[a]pyrene]		high affinity	
